Read-outs that look alike come from different tables or passages of the source.
Experiments:
[1] = test system: MCF-7/adr (ABCB1); experiment: MTT cytotoxicity / MDR reversal; type: cell-based, human; conditions: for IC50: Homo sapiens, NCI/ADR-RES, read-out: IC50 ± SD; for fold-reversal: MCF-7/adr cells, drug alone, no FG020326 (reference)
[2] = test system: KB; experiment: MTT cytotoxicity / MDR reversal; type: cell-based, human; conditions: for IC50: Homo sapiens, KB, read-out: IC50 ± SD; for fold-reversal: KB cells, drug alone, no FG020326 (reference)
[3] = test system: KBv200 (ABCB1); experiment: MTT cytotoxicity / MDR reversal; type: cell-based, human; conditions: for IC50: Homo sapiens, KBv200, read-out: IC50 ± SD; for fold-reversal: KBv200 cells, drug alone, no FG020326 (reference)
[4] = test system: SW1573; experiment: MTT cytotoxicity / MDR reversal; type: cell-based, human
[5] = test system: MCF-7; experiment: MTT cytotoxicity / MDR reversal; type: cell-based, human; conditions: for fold-reversal: no FG020326 (reference)
[6] = test system: SW1573/2R120 (LRP); experiment: MTT cytotoxicity / MDR reversal; type: cell-based, human
[7] = test system: S1; experiment: MTT cytotoxicity / MDR reversal; type: cell-based
[8] = test system: S1-M1-80 (ABCG2); experiment: MTT cytotoxicity / MDR reversal; type: cell-based
[9] = Paclitaxel plasma levels / pharmacokinetics in mice; type: in vivo, NIH mice; conditions: for AUC(0-t): AUC0→ 12, paclitaxel 18 mg/kg i.v.
[10] = test system: KBv200 cell xenografts; experiment: MDR human carcinoma xenograft model; type: in vivo, athymic nude mice
[11] = test system: KB-3-1; experiment: MTT cytotoxicity / MDR reversal; type: cell-based, human
[12] = test system: NIH3T3/MRP-4-2 (ABCC4); experiment: MTT cytotoxicity / MDR reversal; type: cell-based, murine
[13] = test system: NIH3T3; experiment: MTT cytotoxicity / MDR reversal; type: cell-based, murine
[14] = test system: KB-CV60 (ABCC1); experiment: MTT cytotoxicity / MDR reversal; type: cell-based, human
[15] = Homo sapiens, SW1573, read-out: IC50 ± SD
[16] = Homo sapiens, MCF7, read-out: IC50 ± SD
[17] = paclitaxel experiment, paclitaxel 18 mg/kg i.p. q5d×3, FG020326 100 mg/kg p.o.
[18] = VCR experiment, VCR 0.2 mg/kg i.p. q2d×6, FG020326 100 mg/kg p.o. q2d×6
[19] = Mus musculus, NIH3T3, read-out: IC50 ± SD

Question: Which IC50 [1] does the source give for `COc1cccc2c1C(=O)c1c(O)c3c(c(O)c1C2=O)C[C@@](O)(C(=O)CO)C[C@@H]3O[C@H]1C[C@H](N)[C@H](O)[C@H](C)O1` [Doxorubicin, doxorubicin, reference compound] here?
Answer: The IC50 was 14.3 ± 1.42 µM.

Question: What about the fold-reversal [1] of the same molecule?
Answer: The fold-reversal was “(1.0) fold”.

Question: And the IC50 [2]?
Answer: The IC50 was 0.02 ± 0.01 µM.

Question: And the fold-reversal [2]?
Answer: Its fold-reversal is “(1.0) fold”.

Question: And the IC50 [3]?
Answer: Its IC50 is 0.979 ± 0.123 µM.

Question: And the fold-reversal [3]?
Answer: The fold-reversal was “(1.0) fold”.

Question: And the IC50 [4, 15]?
Answer: Its IC50 is 0.116 ± 0.024 µM.

Question: And the fold-reversal ([4]; SW1573 cells, drug alone, no FG020326 (reference))?
Answer: The fold-reversal was “(1.0) fold”.

Question: What about the IC50 [5, 16] of the same molecule?
Answer: The IC50 was 0.081 ± 0.01 µM.

Question: And the fold-reversal ([5]; MCF-7 cells, drug alone)?
Answer: Its fold-reversal is “(1.0) fold”.

Question: And the IC50 [6, 15]?
Answer: Its IC50 is 1.54 ± 0.279 µM.

Question: And the fold-reversal ([6]; SW1573/2R120 cells, drug alone, no FG020326 (reference))?
Answer: The fold-reversal was “(1.0) fold”.

Question: With `CC[C@@]1(O)C(=O)OCc2c1cc1n(c2=O)Cc2cc3c(CN(C)C)c(O)ccc3nc2-1` [Topotecan, topotecan] as the molecule, how does the fold-reversal ([7]; S1 cells, drug alone, no FG020326 (reference)) read?
Answer: Its fold-reversal is “(1.0) fold”.

Question: And the IC50 ([7]; read-out: IC50 ± SD)?
Answer: Its IC50 is 0.084 ± 0.024 µM.

Question: And the IC50 ([8]; Homo sapiens, S1-M1-80, read-out: IC50 ± SD)?
Answer: Its IC50 is 12 ± 1.28 µM.

Question: And the fold-reversal ([8]; S1-M1-80 cells, drug alone, no FG020326 (reference))?
Answer: Its fold-reversal is “(1.0) fold”.

Question: And the fold resistance ([8]; S1-M1-80 compared with S1 cells)?
Answer: Its fold resistance is 143.2 fold.

Question: What does the source list for `CC(=O)O[C@H]1C(=O)[C@@]2(C)[C@H]([C@H](OC(=O)c3ccccc3)[C@]3(O)C[C@H](OC(=O)[C@H](O)[C@@H](NC(=O)c4ccccc4)c4ccccc4)C(C)=C1C3(C)C)[C@]1(OC(C)=O)CO[C@@H]1C[C@@H]2O` [Paclitaxel]?
Answer: IC50 [1]: 0.34 ± 0.0387 µM; fold-reversal [1]: (1.0) fold; IC50 [2]: 0.00138 ± 0.000148 µM; fold-reversal [2]: (1.0) fold; IC50 [3]: 0.0483 ± 0.00412 µM; fold-reversal [3]: (1.0) fold; AUC(0-t) ([9]; both, NIH, mouse, plasma, iv, 18 mg/kg, with FG020326 100 mg/kg p.o.): 69.4 ± 2.26 µg·h/mL; AUC(0-t) ([9]; both, NIH, mouse, plasma, iv, 18 mg/kg, without FG020326): 73.6 ± 5.58 µg·h/mL; AUC(0-inf) ([9]; both, NIH, mouse, plasma, iv, 18 mg/kg, AUC0→ ∞, paclitaxel 18 mg/kg i.v., without FG020326): 73.7 ± 5.57 µg·h/mL; clearance ([9]; both, NIH, mouse, plasma, iv, 18 mg/kg, CL, paclitaxel 18 mg/kg i.v., without FG020326): 0.0888 mL/min; MRT ([9]; both, NIH, mouse, plasma, iv, 18 mg/kg, MRT, paclitaxel 18 mg/kg i.v., without FG020326): 1.54 ± 0.02 h; half-life ([9]; both, NIH, mouse, plasma, iv, 18 mg/kg, T1/2β, paclitaxel 18 mg/kg i.v., with FG020326 100 mg/kg p.o.): 1.42 ± 0.08 h; Vd ([9]; both, NIH, mouse, plasma, iv, 18 mg/kg, Vd, paclitaxel 18 mg/kg i.v., without FG020326): 0.0124 ± 0.0011 L; T1/2α ([9]; paclitaxel 18 mg/kg i.v., without FG020326): 0.55 ± 0.04 h; Growth Inhibition [10, 17]: 8.1%; Post-experiment Weight (body weight) [10, 17]: 24.4 ± 2.6 g; Weight of tumor [10, 17]: 2.06 ± 1.06 g; IC50 [5, 16]: 0.00691 ± 0.000903 µM; fold-reversal ([5]; MCF-7 cells, drug alone): (1.0) fold

Question: For `N.N.[Cl][Pt][Cl]` [Cisplatin, cisplatin, reference compound], which IC50 ([5]; read-out: IC50 ± SD, MCF-7 cells, drug alone, no FG020326) is on record?
Answer: The IC50 was 3.55 ± 0.213 µM.

Question: Which IC50 ([11]; Homo sapiens, KB 3-1, read-out: IC50 ± SD) does the source give for `CC[C@]1(O)C[C@H]2CN(CCc3c([nH]c4ccccc34)[C@@](C(=O)OC)(c3cc4c(cc3OC)N(C=O)[C@H]3[C@@](O)(C(=O)OC)[C@H](OC(C)=O)[C@]5(CC)C=CCN6CC[C@]43[C@@H]65)C2)C1` [Vincristine, vincristine] here?
Answer: Its IC50 is 7.26 ± 0.724 µM.

Question: And the fold-reversal ([11]; KB-3-1 cells, drug alone, no FG020326 (reference))?
Answer: Its fold-reversal is “(1.0) fold”.

Question: And the IC50 [1]?
Answer: Its IC50 is 4.02 ± 0.656 µM.

Question: What about the fold-reversal [1] of the same molecule?
Answer: The fold-reversal was “(1.0) fold”.

Question: And the IC50 [2]?
Answer: Its IC50 is 0.028 ± 0.009 µM.

Question: And the fold-reversal [2]?
Answer: The fold-reversal was “(1.0) fold”.

Question: And the IC50 [3]?
Answer: The IC50 was 1.32 ± 0.256 µM.

Question: What about the fold-reversal [3] of the same molecule?
Answer: Its fold-reversal is “(1.0) fold”.

Question: What about the “Post-experiment Weight (body weight)” value [10, 18] of the same molecule?
Answer: The value was 25.6 ± 1.9 g.

Question: What about the Weight of tumor [10, 18] of the same molecule?
Answer: The Weight of tumor was 2.92 ± 0.94 g.

Question: And the IC50 [12, 19]?
Answer: Its IC50 is 7.25 ± 0.779 µM.

Question: What about the fold-reversal ([12]; NIH3T3/MRP-4-2 cells, drug alone, no FG020326 (reference)) of the same molecule?
Answer: Its fold-reversal is “(1.0) fold”.

Question: And the IC50 [5, 16]?
Answer: Its IC50 is 0.059 ± 0.009 µM.

Question: What about the fold-reversal ([5]; MCF-7 cells, drug alone) of the same molecule?
Answer: Its fold-reversal is “(1.0) fold”.

Question: And the IC50 [13, 19]?
Answer: Its IC50 is 0.324 ± 0.024 µM.

Question: What about the fold-reversal ([13]; NIH3T3 cells, drug alone, no FG020326 (reference)) of the same molecule?
Answer: The fold-reversal was “(1.0) fold”.

Question: What about the IC50 ([14]; Homo sapiens, KB-CV60, read-out: IC50 ± SD) of the same molecule?
Answer: The IC50 was 88.6 ± 8.28 µM.

Question: What about the fold-reversal ([14]; KB-CV60 cells, drug alone, no FG020326 (reference)) of the same molecule?
Answer: The fold-reversal was “(1.0) fold”.

Reference: article PMC2798597 (Biochemical pharmacology, 2009)
